The values below are quoted from earlier work in patent US20140056863A1, “NUTRITIONAL COMPOSITIONS HAVING ALPHA-HICA AND EICOSAPENTAENOIC ACID” (Nestec S.A., priority 2011, published 2014).

Series [1] concerns intestinal mammalian target of rapamycin (mTOR). The settings on record: piglet stressed with LPS; leading to increased protein synthesis and anti-inflammatory responses.
In series [2] the test system is malnourished aged animals.

For `O=C(O)CCC(=O)C(=O)O` [AKG, α-ketoglutarate], the “phosphorylation of intestinal mTOR” value in series [1] is on record as “increased phosphorylation”.

In the case of `NC(=O)NCCC[C@H](N)C(=O)O` [Citrulline, citrulline], the anabolic effect entry in series [2] is “anabolic effect”.
